# Measurements reported in ChEMBL document CHEMBL4715760, “Balancing potency, metabolic stability and permeability in pyrrolopyrimidine-based EGFR inhibitors” (Eur J Med Chem, 2016).
# What was measured:
# [1] = target: Tyrosine-protein kinase Fyn (Homo sapiens) (UniProt P06241); experiment: Inhibition of recombinant human C-terminal His-tagged full length FYN expressed in baculovirus expression system at 500 nM using Tyr 02 peptide as substrate incubated for 1 hr in presence of ATP at its Km concentration by Z'-LYTE assay relative to control
# Tyrosine-protein kinase Fyn (Homo sapiens), sequence (P06241 2-537 limits assumed): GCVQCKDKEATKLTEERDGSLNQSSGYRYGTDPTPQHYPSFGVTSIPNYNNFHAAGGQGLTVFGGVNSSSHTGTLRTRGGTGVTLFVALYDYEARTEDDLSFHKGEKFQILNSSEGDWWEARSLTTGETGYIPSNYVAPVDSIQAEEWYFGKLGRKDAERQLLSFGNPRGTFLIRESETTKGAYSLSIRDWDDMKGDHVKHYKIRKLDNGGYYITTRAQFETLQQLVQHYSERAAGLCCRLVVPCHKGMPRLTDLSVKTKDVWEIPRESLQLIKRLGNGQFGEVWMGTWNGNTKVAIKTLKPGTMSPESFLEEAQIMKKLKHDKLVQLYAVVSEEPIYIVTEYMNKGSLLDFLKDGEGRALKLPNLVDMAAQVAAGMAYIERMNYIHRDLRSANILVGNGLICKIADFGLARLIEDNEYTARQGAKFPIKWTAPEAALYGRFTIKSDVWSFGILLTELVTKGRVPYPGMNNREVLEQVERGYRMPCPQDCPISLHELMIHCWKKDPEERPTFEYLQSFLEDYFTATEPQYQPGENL
# [2] = target: Tyrosine-protein kinase Lck (Homo sapiens) (UniProt P06239); details: dose 500.0 nM, time 1.0 hrs
# Tyrosine-protein kinase Lck (Homo sapiens), sequence (P06239 2-509 limits assumed): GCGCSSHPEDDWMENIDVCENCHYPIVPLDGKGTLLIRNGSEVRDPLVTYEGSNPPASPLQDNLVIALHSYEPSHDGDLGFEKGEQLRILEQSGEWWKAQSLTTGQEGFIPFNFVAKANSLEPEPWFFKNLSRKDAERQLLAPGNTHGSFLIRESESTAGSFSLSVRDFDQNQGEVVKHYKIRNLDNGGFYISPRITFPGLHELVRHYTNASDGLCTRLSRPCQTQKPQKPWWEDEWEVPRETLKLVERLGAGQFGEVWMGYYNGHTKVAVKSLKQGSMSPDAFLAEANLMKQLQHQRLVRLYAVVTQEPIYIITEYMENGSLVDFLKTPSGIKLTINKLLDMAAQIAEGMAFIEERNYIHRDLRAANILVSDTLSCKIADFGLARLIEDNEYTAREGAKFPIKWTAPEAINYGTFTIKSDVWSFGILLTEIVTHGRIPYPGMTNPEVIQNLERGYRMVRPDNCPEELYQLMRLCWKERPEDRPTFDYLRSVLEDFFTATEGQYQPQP
# [3] = target: Vascular endothelial growth factor receptor 2 (Homo sapiens) (UniProt P35968); experiment: Inhibition of recombinant human His-tagged KDR (789 to 1356 residues) expressed in baculovirus expression system at 500 nM using Tyr 01 as substrate incubated for 1 hr in presence of ATP at its Km concentration by Z'-LYTE assay relative to control
# [4] = target: Receptor tyrosine-protein kinase erbB-4 (Homo sapiens) (UniProt Q15303); experiment: Inhibition of recombinant human N-terminal GST-tagged ERBB4 catalytic domain (708 to 993 residues) expressed in baculovirus expression system at 500 nM using Tyr 01 peptide as substrate incubated for 1 hr in presence of ATP at its Km concentration by Z'-LYTE assay relative to control
# [5] = target: Serine/threonine-protein kinase pim-2 (Homo sapiens) (UniProt Q9P1W9); experiment: Inhibition of recombinant full length GST-tagged human PIM2 expressed in baculovirus expression system at 500 nM using Ser/Thr 07 as substrate incubated for 1 hr in presence of ATP at its Km concentration by Z'-LYTE assay relative to control
# Serine/threonine-protein kinase pim-2 (Homo sapiens), sequence (Q9P1W9 whole entry, looked up): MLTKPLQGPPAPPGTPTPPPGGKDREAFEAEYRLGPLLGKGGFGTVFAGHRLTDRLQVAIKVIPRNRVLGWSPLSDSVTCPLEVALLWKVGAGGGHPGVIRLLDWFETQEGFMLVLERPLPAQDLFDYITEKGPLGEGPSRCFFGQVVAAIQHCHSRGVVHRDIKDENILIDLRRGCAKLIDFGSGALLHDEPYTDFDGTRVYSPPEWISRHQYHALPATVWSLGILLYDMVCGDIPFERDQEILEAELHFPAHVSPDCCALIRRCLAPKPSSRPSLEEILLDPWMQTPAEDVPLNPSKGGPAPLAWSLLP
# [6] = target: Proto-oncogene tyrosine-protein kinase Src (Homo sapiens) (UniProt P12931); experiment: Inhibition of recombinant human His-tagged full length SRC expressed in baculovirus expression system at 500 nM using Tyr 02 as substrate incubated for 1 hr in presence of ATP at its Km concentration by Z'-LYTE assay relative to control
# [7] = target: Macrophage colony-stimulating factor 1 receptor (Homo sapiens) (UniProt P07333); experiment: Inhibition of recombinant human His-tagged CSF1R (538 to 910 residues) expressed in baculovirus expression system at 500 nM using Tyr 01 peptide as substrate incubated for 1 hr in presence of ATP at its Km concentration by Z'-LYTE assay relative to control
# [8] = target: Tyrosine-protein kinase CSK (Homo sapiens) (UniProt P41240); experiment: Inhibition of recombinant full length human His-tagged CSK expressed in Escherichia coli expression system at 500 nM using Tyr 02 peptide as substrate incubated for 1 hr in presence of ATP at its Km concentration by Z'-LYTE assay relative to control
# Tyrosine-protein kinase CSK (Homo sapiens), sequence (P41240 2-450 limits assumed): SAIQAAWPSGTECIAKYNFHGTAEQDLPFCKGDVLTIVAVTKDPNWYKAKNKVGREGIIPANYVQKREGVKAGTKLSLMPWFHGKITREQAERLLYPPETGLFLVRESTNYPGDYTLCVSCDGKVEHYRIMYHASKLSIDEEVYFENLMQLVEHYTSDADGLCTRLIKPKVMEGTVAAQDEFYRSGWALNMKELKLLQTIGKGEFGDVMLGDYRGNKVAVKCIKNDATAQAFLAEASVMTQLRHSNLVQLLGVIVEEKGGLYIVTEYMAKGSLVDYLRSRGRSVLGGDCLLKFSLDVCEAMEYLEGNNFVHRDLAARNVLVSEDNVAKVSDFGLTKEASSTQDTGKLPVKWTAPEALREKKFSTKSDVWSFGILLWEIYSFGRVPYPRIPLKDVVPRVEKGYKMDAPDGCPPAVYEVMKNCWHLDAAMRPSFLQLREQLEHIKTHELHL
# [9] = target: Proto-oncogene tyrosine-protein kinase receptor Ret (Homo sapiens) (UniProt P07949); experiment: Inhibition of recombinant human GST-tagged RET (658 to 1114 residues) expressed in baculovirus expression system at 500 nM using Tyr 02 as substrate incubated for 1 hr in presence of ATP at its Km concentration by Z'-LYTE assay relative to control
# [10] = target: Protein kinase C alpha type (Homo sapiens) (UniProt P17252); experiment: Inhibition of human full length GST-tagged PRKCA expressed in insect cells at 500 nM using Ser/Thr 07 as substrate incubated for 1 hr in presence of ATP at its Km concentration by Z'-LYTE assay relative to control
# [11] = target: Tyrosine-protein kinase Fgr (Homo sapiens) (UniProt P09769); experiment: Inhibition of recombinant full length human C-terminal His-tagged FGR expressed in baculovirus expression system at 500 nM using Tyr 02 peptide as substrate incubated for 1 hr in presence of ATP at its Km concentration by Z'-LYTE assay relative to control
# [12] = target: Tyrosine-protein kinase HCK (Homo sapiens) (UniProt P08631); experiment: Inhibition of recombinant full length N-terminal GST-tagged human HCK expressed in baculovirus expression system at 500 nM using Tyr 02 as substrate incubated for 1 hr in presence of ATP at its Km concentration by Z'-LYTE assay relative to control
# Tyrosine-protein kinase HCK (Homo sapiens), sequence (P08631 2-526 limits assumed): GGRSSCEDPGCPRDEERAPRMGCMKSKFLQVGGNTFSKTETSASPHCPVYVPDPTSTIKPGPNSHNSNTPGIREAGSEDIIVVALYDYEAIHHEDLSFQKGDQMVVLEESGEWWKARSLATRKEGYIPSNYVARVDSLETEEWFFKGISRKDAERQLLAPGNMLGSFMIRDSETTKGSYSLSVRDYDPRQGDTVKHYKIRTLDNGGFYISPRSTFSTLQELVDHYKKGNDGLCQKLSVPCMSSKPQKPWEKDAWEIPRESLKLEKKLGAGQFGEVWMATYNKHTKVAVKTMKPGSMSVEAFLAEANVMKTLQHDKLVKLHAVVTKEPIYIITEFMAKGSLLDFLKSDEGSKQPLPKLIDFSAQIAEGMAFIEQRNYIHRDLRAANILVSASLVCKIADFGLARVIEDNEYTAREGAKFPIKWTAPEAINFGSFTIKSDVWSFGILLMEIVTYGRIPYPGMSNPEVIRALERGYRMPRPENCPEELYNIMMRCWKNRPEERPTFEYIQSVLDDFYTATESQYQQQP
# A-431 = experiment: Antiproliferative activity against human A431 cells; type: functional, cell-based
# [13] = target: T1, Epidermal growth factor receptor (Homo sapiens, UniProt P00533); details: dose 100.0 nM
# Description: Inhibition of human EGFR at 100 nM using poly[Glu:Tyr] (4:1) as substrate in presence of [gamma33P]ATP by radiometric HotSpot assay relative to control
# BaF3 = experiment: Antiproliferative activity against mouse Ba/F3 cells expressing EGFR-L858R mutant assessed as inhibition of cell growth incubated for 48 hrs by XTT assay; type: functional, cell-based; details: BaF3, 48 h
# [14] = target: Mitogen-activated protein kinase 14 (Homo sapiens) (UniProt Q16539); experiment: Inhibition of recombinant human GST-tagged full length MAPK14 expressed in Escherichia coli expression system at 500 nM using Ser/Thr 04 as substrate incubated for 1 hr in presence of ATP at its Km concentration by Z'-LYTE assay relative to control
# Mitogen-activated protein kinase 14 (Homo sapiens), sequence (Q16539 whole entry): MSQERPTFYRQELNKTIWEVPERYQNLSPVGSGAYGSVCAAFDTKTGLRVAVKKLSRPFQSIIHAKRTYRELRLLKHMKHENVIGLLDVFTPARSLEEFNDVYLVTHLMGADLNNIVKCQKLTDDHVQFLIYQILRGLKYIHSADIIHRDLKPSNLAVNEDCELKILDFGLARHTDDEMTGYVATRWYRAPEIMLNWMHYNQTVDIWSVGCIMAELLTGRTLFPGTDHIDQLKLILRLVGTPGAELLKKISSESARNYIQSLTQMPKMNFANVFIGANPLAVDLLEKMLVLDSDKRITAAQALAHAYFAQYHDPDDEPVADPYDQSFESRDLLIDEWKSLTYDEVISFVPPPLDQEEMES
# [15] = target: Serine/threonine-protein kinase PLK1 (Homo sapiens) (UniProt P53350); experiment: Inhibition of recombinant full length human His-tagged PLK1 expressed in baculovirus expression system at 500 nM using Ser/Thr 16 as substrate incubated for 1 hr in presence of ATP at its Km concentration by Z'-LYTE assay relative to control
# Serine/threonine-protein kinase PLK1 (Homo sapiens), sequence (P53350 whole entry): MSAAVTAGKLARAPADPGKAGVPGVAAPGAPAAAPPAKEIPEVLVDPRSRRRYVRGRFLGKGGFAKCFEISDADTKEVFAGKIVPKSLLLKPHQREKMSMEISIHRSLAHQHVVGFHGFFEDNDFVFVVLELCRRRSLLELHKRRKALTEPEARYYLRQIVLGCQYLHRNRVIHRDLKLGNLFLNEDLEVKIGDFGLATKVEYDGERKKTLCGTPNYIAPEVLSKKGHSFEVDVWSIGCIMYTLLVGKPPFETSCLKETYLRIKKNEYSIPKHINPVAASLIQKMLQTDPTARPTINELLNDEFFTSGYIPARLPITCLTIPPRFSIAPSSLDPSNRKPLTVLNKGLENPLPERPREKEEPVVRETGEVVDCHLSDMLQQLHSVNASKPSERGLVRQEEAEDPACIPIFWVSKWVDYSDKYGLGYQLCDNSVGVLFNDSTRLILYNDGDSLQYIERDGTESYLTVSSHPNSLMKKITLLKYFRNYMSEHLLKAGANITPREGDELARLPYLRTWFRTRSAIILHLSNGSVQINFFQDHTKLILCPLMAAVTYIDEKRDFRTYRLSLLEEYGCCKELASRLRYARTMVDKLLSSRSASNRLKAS
# [16] = target: T1, Epidermal growth factor receptor; details: dose 500.0 nM, time 1.0 hrs
# [17] = target: Aurora kinase B (Homo sapiens) (UniProt Q96GD4); experiment: Inhibition of recombinant full length His-tagged human AURKB expressed in baculovirus expression system at 500 nM using Ser/Thr 01 as substrate incubated for 1 hr in presence of ATP at its Km concentration by Z'-LYTE assay relative to control
# Aurora kinase B (Homo sapiens), sequence (Q96GD4 whole entry): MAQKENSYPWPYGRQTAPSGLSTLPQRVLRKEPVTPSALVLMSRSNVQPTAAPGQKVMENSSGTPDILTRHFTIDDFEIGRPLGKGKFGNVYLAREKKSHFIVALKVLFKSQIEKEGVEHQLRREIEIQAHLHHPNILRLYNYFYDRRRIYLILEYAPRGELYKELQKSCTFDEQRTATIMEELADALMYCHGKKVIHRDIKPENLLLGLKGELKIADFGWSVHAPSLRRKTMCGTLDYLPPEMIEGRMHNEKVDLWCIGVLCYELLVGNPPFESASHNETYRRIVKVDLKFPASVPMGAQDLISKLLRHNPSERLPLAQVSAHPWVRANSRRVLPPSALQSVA
# [18] = target: Focal adhesion kinase 1 (Homo sapiens) (UniProt Q05397); experiment: Inhibition of recombinant full length human GST-tagged PTK2 expressed in baculovirus expression system at 500 nM using Tyr 07 as substrate incubated for 1 hr in presence of ATP at its Km concentration by Z'-LYTE assay relative to control
# [19] = target: Mast/stem cell growth factor receptor Kit (Homo sapiens) (UniProt P10721); experiment: Inhibition of human recombinant His-tagged c-Kit cytoplasmic domain (544 to 976 residues) expressed in baculovirus expression system at 500 nM using Tyr 06 as substrate incubated for 1 hr in presence of ATP at its Km concentration by Z'-LYTE assay relative to control
# [20] = target: Angiopoietin-1 receptor (Homo sapiens) (UniProt Q02763); experiment: Inhibition of recombinant human GST-tagged TEK (817 to 1101 residues) expressed in baculovirus expression system at 500 nM using Tyr 05 as substrate incubated for 1 hr in presence of ATP at its Km concentration by Z'-LYTE assay relative to control
# Angiopoietin-1 receptor (Homo sapiens), sequence (Q02763 whole entry, the tested form may be a part): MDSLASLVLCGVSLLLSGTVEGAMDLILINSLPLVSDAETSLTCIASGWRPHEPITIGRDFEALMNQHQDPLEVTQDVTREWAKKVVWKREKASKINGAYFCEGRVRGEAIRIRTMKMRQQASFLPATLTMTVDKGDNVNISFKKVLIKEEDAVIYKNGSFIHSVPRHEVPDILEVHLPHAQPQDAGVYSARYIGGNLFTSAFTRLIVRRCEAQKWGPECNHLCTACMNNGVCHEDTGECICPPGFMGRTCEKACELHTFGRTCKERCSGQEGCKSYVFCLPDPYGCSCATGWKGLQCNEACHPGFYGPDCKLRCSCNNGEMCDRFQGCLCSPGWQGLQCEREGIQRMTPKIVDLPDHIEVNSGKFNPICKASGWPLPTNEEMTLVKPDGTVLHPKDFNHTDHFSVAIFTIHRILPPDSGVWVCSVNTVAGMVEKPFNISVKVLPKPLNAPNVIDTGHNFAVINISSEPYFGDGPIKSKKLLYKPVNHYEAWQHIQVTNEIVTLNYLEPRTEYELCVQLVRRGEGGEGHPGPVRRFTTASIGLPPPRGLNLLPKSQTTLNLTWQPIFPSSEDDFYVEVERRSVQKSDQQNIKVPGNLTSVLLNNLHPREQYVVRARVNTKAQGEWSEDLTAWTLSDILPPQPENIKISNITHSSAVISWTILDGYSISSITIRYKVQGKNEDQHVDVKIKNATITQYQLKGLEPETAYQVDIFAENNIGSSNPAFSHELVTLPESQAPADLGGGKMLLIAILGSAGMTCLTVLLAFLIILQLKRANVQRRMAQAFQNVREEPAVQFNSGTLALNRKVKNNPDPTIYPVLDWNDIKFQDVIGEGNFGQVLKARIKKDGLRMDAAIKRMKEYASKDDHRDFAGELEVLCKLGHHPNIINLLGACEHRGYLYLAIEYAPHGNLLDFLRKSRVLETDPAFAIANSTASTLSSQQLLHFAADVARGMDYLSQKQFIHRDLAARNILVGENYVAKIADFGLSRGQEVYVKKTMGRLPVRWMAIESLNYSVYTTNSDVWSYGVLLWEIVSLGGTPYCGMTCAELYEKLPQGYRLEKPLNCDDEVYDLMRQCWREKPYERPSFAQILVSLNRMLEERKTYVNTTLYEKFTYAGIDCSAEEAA
Structure (SMILES),inhibition [1],inhibition [2],inhibition [3],inhibition [4],inhibition [5],inhibition [6],inhibition [7],inhibition [8],inhibition [9],inhibition [10],inhibition [11],inhibition [12],IC50 (A-431),IC50 (BaF3),inhibition [14],inhibition [15],inhibition [16],inhibition [17],inhibition [18],inhibition [19],further results
COc1ccccc1-c1cc2c(N[C@H](CO)c3ccccc3)ncnc2[nH]1,27%,17%,15%,79%,5%,59%,79%,6%,15%,15%,74%,30%,,134 nM,24%,,100%,5%,-2%,17%,inhibition ([13]; tested as the 2H-labelled form): 99%; inhibition [20]: 0%
OC[C@@H](Nc1ncnc2[nH]c(-c3ccccc3)cc12)c1ccccc1,27%,13%,28%,51%,9%,59%,88%,9%,14%,17%,73%,29%,300 nM,,19%,1%,96%,13%,,20%,inhibition [20]: 1%
OCC[C@@H](Nc1ncnc2[nH]c(-c3ccccc3)cc12)c1ccccc1,26%,29%,0%,15%,6%,25%,74%,19%,2%,-9%,67%,31%,800 nM,75 nM,14%,-5%,100%,7%,7%,,inhibition [13]: 99%; inhibition [20]: -10%

# Now from value to compound, other results behind:
inhibition [1],inhibition [2],inhibition [3],inhibition [4],inhibition [5],inhibition [6],inhibition [7],inhibition [8],inhibition [9],inhibition [10],inhibition [11],inhibition [12],IC50 (A-431),IC50 (BaF3),inhibition [14],inhibition [15],inhibition [16],inhibition [17],inhibition [18],inhibition [19],Structure (SMILES),further results
34%,26%,9%,62%,2%,40%,82%,17%,9%,1%,73%,27%,9200 nM,98 nM,10%,-3%,102%,1%,9%,,CCOc1ccccc1-c1cc2c(N[C@H](CO)c3ccccc3)ncnc2[nH]1,inhibition [13]: 98%
55%,81%,53%,74%,-5%,76%,86%,17%,25%,,83%,36%,> 10000 nM,142 nM,20%,-3%,104%,17%,1%,1%,CN(C)CCNCc1ccc(-c2cc3c(N[C@H](CO)c4ccccc4)ncnc3[nH]2)cc1F,inhibition [13]: 99%
,,,,,,,,,,,,400 nM,87 nM,,-9%,,,-3%,17%,C#Cc1cccc(Nc2ncnc3cc(OCCOC)c(OCCOC)cc23)c1 [ERLOTINIB],
